According to ChEMBL document CHEMBL4334526, “Synthesis of Peptoid-Based Class I-Selective Histone Deacetylase Inhibitors with Chemosensitizing Properties” (J Med Chem, 2019):
The source made the active and inactive calls. No cut-off for these calls is given here.

Columns and labels:
[1] = biological target: T1, Histone deacetylase 2 (Homo sapiens, UniProt Q92769); assay: Inhibition of recombinant human full length C-terminal FLAG-tagged HDAC2 expressed in baculovirus infected Sf9 insect cells at 10 uM using Boc-Lys(epsilon-acetyl)-AMC as substrate incubated for 90 mins by fluorescence assay relative to control
[2] = biological target: T2, Protein deacetylase HDAC6 (Homo sapiens, UniProt Q9UBN7); assay: Inhibition of human full length N-terminal GST-tagged HDAC6 expressed in baculovirus infected Sf9 insect cells ZMAL as substrate incubated for 90 mins by fluorescence assay; assay type: cell-based
T2 sequence (Q9UBN7 whole entry): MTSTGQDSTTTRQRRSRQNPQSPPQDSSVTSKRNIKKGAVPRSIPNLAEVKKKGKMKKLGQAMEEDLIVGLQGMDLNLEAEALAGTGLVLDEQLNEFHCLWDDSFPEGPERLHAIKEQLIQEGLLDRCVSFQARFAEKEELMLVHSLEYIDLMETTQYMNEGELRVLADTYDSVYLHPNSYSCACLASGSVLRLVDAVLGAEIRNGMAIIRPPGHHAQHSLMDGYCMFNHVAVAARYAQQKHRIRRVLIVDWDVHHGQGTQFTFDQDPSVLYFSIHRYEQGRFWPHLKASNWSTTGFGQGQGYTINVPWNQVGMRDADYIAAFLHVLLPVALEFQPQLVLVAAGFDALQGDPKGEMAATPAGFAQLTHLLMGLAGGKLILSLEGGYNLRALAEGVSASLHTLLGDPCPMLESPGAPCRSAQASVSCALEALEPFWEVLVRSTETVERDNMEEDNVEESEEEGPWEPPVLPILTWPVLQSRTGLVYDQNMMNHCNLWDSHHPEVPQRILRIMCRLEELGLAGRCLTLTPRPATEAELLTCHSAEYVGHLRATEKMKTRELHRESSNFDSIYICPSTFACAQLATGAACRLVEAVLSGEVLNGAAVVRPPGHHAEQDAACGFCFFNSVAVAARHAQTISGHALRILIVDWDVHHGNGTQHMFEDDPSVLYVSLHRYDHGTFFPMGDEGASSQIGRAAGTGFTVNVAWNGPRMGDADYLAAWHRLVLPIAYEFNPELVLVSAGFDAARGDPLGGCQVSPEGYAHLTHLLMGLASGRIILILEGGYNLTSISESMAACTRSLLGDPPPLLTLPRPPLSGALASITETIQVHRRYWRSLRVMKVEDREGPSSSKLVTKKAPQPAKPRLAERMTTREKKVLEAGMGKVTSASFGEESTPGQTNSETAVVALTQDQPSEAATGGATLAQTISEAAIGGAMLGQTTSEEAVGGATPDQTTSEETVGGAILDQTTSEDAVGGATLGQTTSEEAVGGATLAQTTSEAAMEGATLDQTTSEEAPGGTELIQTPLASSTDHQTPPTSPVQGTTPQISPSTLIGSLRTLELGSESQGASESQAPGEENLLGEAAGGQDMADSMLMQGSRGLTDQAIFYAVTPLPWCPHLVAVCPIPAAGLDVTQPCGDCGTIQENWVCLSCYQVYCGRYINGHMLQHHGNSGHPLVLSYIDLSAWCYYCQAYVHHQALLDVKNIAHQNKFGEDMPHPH

[3] = tested on: CAL-27; assay: Cytotoxicity against human CAL27 cells assessed as reduction in cell survival measured after 72 hrs by MTT assay; assay type: functional, cell-based; conditions: CAL-27, 72 h
[4] = biological target: Histone deacetylase; assay: Inhibition of HDAC in human A2780 cells using Boc-Lys(epsilon-Ac)-AMC as substrate preincubated for 18 hrs followed by substrate addition and measured after 3 hrs by fluorescence assay; assay type: cell-based
[5] = biological target: Histone deacetylase; assay: Inhibition of HDAC in human CAL27 cells using Boc-Lys(epsilon-Ac)-AMC as substrate preincubated for 18 hrs followed by substrate addition and measured after 3 hrs by fluorescence assay; assay type: cell-based
[6] = tested on: A2780; assay: Cytotoxicity against human A2780 cells assessed as reduction in cell survival measured after 72 hrs by MTT assay; assay type: functional, cell-based; conditions: A2780, 72 h
[7] = biological target: Histone deacetylase 1 (Homo sapiens, UniProt Q13547); assay: Inhibition of recombinant human full length C-terminal His/FLAG-tagged HDAC1 expressed in baculovirus infected Sf9 insect cells using ZMAL as substrate incubated for 90 mins by fluorescence assay
[8] = biological target: Histone deacetylase 3/Nuclear receptor corepressor 2 (HDAC3/NCoR2) (Homo sapiens) (UniProt O15379+Q9Y618); assay: Inhibition of human recombinant full length C-terminal His-tagged HDAC3 (1 to 428 residues)/N-terminal GST-tagged NCOR2 (395 to 489 residues) expressed in baculovirus infected Sf9 insect cells at 10 uM using Boc-Lys(epsilon-acetyl)-AMC as substrate incubated for 90 mins by fluorescence assay relative to control
[9] = biological target: Histone deacetylase 3/Nuclear receptor corepressor 2 (HDAC3/NCoR2) (Homo sapiens, UniProt O15379); assay: biochemical; assay type: cell-based, Sf9
Description: Inhibition of human recombinant full length C-terminal His-tagged HDAC3 (1 to 428 residues)/N-terminal GST-tagged NCOR2 (395 to 489 residues) expressed in baculovirus infected Sf9 insect cells using Boc-Lys(epsilon-acetyl)-AMC as substrate incubated for 90 mins by fluorescence assay

[10] = biological target: T1, Histone deacetylase 2; assay: Inhibition of recombinant human full length C-terminal FLAG-tagged HDAC2 expressed in baculovirus infected Sf9 insect cells using Boc-Lys(epsilon-acetyl)-AMC as substrate incubated for 90 mins by fluorescence assay; assay type: cell-based
[11] = tested on: CAL-27; assay: Potency index, ratio of vorinostat IC50 to test compound IC50 for cytotoxicity against human CAL27 cells; assay type: functional
[12] = tested on: A2780; assay: Cytotoxicity against human A2780 cells assessed as reduction in cell survival up to 100 uM measured after 72 hrs by MTT assay; assay type: functional, cell-based
[13] = biological target: T1, Histone deacetylase 2; assay: Inhibition of recombinant human full length C-terminal FLAG-tagged HDAC2 expressed in baculovirus infected Sf9 insect cells at 3.33 uM using Boc-Lys(epsilon-acetyl)-AMC as substrate incubated for 90 mins by fluorescence assay relative to control

Sequence of Histone deacetylase 3/Nuclear receptor corepressor 2 (HDAC3/NCoR2) (O15379 whole entry): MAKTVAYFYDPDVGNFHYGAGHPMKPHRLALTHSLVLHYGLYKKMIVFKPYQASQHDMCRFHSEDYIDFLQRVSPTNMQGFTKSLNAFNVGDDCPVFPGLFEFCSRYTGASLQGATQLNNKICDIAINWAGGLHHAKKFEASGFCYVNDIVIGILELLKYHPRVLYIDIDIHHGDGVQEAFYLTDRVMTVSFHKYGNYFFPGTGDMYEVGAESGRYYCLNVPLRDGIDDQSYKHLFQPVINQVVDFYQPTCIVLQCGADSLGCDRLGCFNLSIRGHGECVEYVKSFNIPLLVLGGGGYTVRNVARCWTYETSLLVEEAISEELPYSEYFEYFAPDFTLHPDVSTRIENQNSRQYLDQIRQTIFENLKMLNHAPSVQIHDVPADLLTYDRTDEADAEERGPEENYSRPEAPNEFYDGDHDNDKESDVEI
Sequence of Histone deacetylase 3/Nuclear receptor corepressor 2 (HDAC3/NCoR2) (Q9Y618 whole entry, further chain): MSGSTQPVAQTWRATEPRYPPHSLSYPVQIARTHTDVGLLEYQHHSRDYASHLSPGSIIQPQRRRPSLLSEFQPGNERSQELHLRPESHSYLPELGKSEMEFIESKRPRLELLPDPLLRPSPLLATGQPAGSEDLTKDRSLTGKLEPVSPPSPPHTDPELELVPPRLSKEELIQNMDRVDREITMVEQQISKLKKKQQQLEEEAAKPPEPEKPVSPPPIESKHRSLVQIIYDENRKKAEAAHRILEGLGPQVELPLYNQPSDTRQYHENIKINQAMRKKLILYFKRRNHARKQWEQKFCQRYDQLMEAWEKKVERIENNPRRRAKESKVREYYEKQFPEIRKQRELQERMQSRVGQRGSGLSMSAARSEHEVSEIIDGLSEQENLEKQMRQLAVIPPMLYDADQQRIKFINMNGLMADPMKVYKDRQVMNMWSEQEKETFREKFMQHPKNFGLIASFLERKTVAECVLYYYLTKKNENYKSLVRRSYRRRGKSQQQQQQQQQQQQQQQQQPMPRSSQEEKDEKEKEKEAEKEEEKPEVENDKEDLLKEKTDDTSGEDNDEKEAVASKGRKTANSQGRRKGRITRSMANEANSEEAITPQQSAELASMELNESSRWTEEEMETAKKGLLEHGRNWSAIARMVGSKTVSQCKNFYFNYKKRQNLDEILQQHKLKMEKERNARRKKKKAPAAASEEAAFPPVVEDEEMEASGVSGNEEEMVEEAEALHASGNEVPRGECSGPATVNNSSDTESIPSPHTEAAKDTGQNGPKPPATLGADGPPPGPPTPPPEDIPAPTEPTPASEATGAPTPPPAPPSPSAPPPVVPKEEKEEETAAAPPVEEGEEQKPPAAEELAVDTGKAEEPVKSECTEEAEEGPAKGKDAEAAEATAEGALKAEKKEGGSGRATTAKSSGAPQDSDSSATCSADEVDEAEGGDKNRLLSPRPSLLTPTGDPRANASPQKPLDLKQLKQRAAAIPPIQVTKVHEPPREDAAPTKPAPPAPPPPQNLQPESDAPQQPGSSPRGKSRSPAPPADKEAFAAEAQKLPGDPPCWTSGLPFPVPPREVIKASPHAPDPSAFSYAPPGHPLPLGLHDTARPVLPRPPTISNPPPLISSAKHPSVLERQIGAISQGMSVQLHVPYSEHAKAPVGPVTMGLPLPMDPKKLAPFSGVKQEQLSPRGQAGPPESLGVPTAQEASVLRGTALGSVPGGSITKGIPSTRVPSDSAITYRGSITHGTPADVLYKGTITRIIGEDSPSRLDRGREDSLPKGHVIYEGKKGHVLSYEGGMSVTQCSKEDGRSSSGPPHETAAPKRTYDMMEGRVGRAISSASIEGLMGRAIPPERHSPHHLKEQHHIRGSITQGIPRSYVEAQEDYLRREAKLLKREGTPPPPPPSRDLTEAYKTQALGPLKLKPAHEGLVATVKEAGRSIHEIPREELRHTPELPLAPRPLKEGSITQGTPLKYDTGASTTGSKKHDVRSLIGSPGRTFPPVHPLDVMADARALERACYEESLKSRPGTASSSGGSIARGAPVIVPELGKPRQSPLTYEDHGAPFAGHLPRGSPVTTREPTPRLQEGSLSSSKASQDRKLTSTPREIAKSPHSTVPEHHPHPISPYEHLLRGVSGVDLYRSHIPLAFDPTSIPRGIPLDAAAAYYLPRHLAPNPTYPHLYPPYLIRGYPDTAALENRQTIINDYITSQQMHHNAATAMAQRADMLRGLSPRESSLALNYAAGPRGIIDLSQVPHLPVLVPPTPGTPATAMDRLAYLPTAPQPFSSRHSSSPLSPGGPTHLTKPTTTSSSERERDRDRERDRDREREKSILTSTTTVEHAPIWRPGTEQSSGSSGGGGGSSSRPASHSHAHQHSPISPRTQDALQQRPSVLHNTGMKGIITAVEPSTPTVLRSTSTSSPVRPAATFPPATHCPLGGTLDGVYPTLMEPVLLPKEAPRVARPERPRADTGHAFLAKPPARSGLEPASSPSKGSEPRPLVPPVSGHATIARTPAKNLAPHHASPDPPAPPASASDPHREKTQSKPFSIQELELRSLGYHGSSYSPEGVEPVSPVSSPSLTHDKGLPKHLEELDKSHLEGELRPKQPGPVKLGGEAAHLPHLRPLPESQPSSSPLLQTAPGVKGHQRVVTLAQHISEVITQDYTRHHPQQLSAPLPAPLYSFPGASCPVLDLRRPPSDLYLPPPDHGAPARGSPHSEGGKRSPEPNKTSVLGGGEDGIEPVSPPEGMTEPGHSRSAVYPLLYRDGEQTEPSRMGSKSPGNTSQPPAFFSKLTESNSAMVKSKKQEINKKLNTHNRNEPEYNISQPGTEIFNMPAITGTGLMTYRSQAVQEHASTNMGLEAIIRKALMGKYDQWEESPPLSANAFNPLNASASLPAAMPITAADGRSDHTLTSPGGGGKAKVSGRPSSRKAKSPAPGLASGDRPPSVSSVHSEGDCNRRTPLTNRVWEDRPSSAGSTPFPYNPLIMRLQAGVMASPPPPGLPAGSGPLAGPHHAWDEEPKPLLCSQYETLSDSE
T1 sequence (Q92769 whole entry): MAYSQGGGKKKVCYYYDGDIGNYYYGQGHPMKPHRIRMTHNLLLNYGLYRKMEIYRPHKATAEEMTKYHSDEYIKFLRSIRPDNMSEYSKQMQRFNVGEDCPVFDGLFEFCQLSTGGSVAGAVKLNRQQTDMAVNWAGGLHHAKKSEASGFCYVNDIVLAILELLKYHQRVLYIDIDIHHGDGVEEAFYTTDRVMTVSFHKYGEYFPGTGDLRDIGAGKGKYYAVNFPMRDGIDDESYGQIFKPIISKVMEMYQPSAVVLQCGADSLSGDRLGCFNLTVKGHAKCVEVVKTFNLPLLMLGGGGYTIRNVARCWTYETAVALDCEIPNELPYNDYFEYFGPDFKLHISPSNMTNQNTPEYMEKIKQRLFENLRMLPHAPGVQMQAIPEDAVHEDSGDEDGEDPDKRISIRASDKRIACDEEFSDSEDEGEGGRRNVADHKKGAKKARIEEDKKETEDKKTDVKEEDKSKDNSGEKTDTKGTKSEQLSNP
Sequence of Histone deacetylase 1 (Q13547 whole entry, the tested form may be a part): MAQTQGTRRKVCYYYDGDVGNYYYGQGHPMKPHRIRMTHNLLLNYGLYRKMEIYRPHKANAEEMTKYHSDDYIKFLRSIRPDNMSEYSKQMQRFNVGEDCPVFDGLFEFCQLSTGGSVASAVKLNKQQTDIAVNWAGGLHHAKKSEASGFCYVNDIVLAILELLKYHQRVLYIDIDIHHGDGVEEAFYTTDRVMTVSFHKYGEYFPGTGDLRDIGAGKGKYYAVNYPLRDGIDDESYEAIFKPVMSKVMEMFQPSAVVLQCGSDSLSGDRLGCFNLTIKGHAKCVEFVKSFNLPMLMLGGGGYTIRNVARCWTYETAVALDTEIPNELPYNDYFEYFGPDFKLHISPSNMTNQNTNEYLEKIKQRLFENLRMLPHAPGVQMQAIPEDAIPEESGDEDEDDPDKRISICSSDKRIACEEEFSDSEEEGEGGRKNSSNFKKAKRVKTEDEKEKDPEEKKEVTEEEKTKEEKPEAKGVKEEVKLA

With `Cc1cc(C)cc(C(=O)N(CC(=O)NCc2ccccc2)Cc2ccc(C(=O)Nc3cc(F)ccc3N)cc2)c1` the inhibition [1] was 25%, the IC50 [2] was over 10 µM and the IC50 [3] was 5.72 µM. For the same molecule, the IC50 [4] was 1.43 µM, the IC50 [5] was 0.47 µM and the IC50 [6] was 5.4 µM. The IC50 [7] was 277 nM and the inhibition [8] was 23%.

For `Cc1cc(C)cc(C(=O)N(CCCCCC(=O)Nc2ccccc2N)CC(=O)NCc2ccccc2)c1`, the IC50 [2] was over 10 µM, the IC50 [9] was 250 nM and the IC50 [3] was 13.7 µM. For the same molecule, the IC50 [4] was 8.71 µM, the IC50 [10] was 1.6 µM and the IC50 [5] was 3.93 µM. For the same molecule, the IC50 [6] was 20.9 µM and the IC50 [7] was 1160 nM.

With `Cc1cc(C)cc(CNC(=O)CN(CCCCCC(=O)Nc2ccccc2N)C(=O)c2cc(C)cc(C)c2)c1` the IC50 [2] was over 10 µM, the IC50 [9] was 583 nM and the IC50 [3] was 19.3 µM. It also gave an IC50 [4] of 3.17 µM, an IC50 [10] of 4.1 µM and an IC50 [5] of 3.15 µM. The IC50 [6] was 5.1 µM and the IC50 [7] was 484 nM.

For `CN(C)c1ccc(C(=O)N(CCCCCC(=O)Nc2cc(F)ccc2N)CC(=O)NCc2ccccc2)cc1`, the IC50 [2] was over 10 µM, the IC50 [9] was 369 nM and the IC50 [3] was 20.2 µM. For the same molecule, the IC50 [4] was 13.4 µM, the IC50 [10] was 3.06 µM and the IC50 [5] was 6.82 µM. It also gave an IC50 [6] of 25.9 µM and an IC50 [7] of 1980 nM.

With `CN(C)c1ccc(C(=O)N(CCCCCC(=O)Nc2ccccc2N)CC(=O)NCc2ccccc2)cc1` the IC50 [2] was over 10 µM, the IC50 [9] was 312 nM and the IC50 [3] was 16 µM. The IC50 [4] was 9.25 µM, the IC50 [10] was 1.24 µM and the IC50 [5] was 4.33 µM. For the same molecule, the IC50 [6] was 18.5 µM and the IC50 [7] was 1580 nM.

Work on `Cc1cc(C)cc(C(=O)N(CC(=O)NCc2ccccc2)Cc2ccc(C(=O)Nc3ccccc3N)cc2)c1` yielded an IC50 [2] of over 10 µM, an IC50 [3] of 1.6 µM and an IC50 [4] of 0.81 µM. For the same molecule, the IC50 [10] was 0.485 µM, the IC50 [5] was 0.18 µM and the IC50 [6] was 2.8 µM. For the same molecule, the IC50 [7] was 62 nM, the inhibition [8] was 32% and the “Ratio IC50” value [11] was 1.7.

For `Cc1ccc(CNC(=O)CN(CCCCCC(=O)Nc2ccccc2N)C(=O)c2cc(C)cc(C)c2)cc1`, the IC50 [2] was over 10 µM, the IC50 [9] was 478 nM and the IC50 [3] was 18.2 µM. It also gave an IC50 [4] of 4.48 µM, an IC50 [10] of 5.03 µM and an IC50 [5] of 4.57 µM. The IC50 [6] was 9.8 µM and the IC50 [7] was 1100 nM.

Molecule `Nc1ccccc1NC(=O)c1ccc(CN(CC(=O)NCc2ccccc2)C(=O)c2cccnc2)cc1` has an IC50 [2] of over 10 µM, an IC50 [9] of 878 nM and an IC50 [3] of 11.2 µM. For the same molecule, the IC50 [4] was 1.06 µM, the IC50 [10] was 0.786 µM and the IC50 [5] was 1.01 µM. The IC50 [6] was 8.9 µM and the IC50 [7] was 103 nM.

With `CN(C)c1ccc(C(=O)N(CC(=O)NCc2ccccc2)Cc2ccc(C(=O)Nc3cc(-c4ccccc4)ccc3N)cc2)cc1` the IC50 [2] was over 10 µM, the IC50 [9] was over 10000 nM and the IC50 [3] was 11.1 µM. For the same molecule, the IC50 [4] was 2.62 µM, the IC50 [5] was 0.85 µM and the IC50 [7] was 39 nM. For the same molecule, the Activity [12] was “inactive”, the inhibition [8] was under 15% and the inhibition [13] was 36%.

Molecule `Nc1ccccc1NC(=O)CCCCCN(CC(=O)NC1CCCCC1)C(=O)c1ccccc1` has an IC50 [2] of over 10 µM, an IC50 [9] of 858 nM and an IC50 [3] of 30.9 µM. The IC50 [4] was 43.6 µM, the IC50 [10] was 5.95 µM and the IC50 [5] was 21.9 µM. The IC50 [6] was 181 µM and the IC50 [7] was 5460 nM.

`Nc1ccccc1NC(=O)CCCCCN(CC(=O)NCc1ccccc1)C(=O)c1cccc2ccccc12` was tested, and the IC50 [2] was over 10 µM, the IC50 [9] was 163 nM and the IC50 [3] was 11 µM. For the same molecule, the IC50 [4] was 10.2 µM, the IC50 [10] was 1.9 µM and the IC50 [5] was 4.13 µM. The IC50 [6] was 22.8 µM and the IC50 [7] was 1670 nM.

Work on `COc1ccc(CNC(=O)CN(CCCCCC(=O)Nc2ccccc2N)C(=O)c2cc(C)cc(C)c2)cc1` yielded an inhibition [1] of 30%, an IC50 [2] of over 10 µM and an IC50 [3] of 17.4 µM. For the same molecule, the IC50 [4] was 3.53 µM, the IC50 [5] was 4.81 µM and the IC50 [6] was 24.6 µM. For the same molecule, the IC50 [7] was 2080 nM and the inhibition [8] was 49%.

`Cc1cc(C)cc(C(=O)N(CCCCCC(=O)Nc2ccccc2N)CC(=O)NC2CCCCC2)c1` gave an IC50 [2] of over 10 µM, an IC50 [9] of 481 nM and an IC50 [3] of 17.5 µM. It also gave an IC50 [4] of 22.8 µM, an IC50 [10] of 6.66 µM and an IC50 [5] of 12.1 µM. The IC50 [6] was 42 µM and the IC50 [7] was 5550 nM.

`Nc1ccccc1NC(=O)CCCCCN(CC(=O)NC1CCCCC1)C(=O)c1cccc2ccccc12` showed an IC50 [2] of over 10 µM, an IC50 [9] of 646 nM and an IC50 [3] of 24.9 µM. For the same molecule, the IC50 [4] was 33.1 µM, the IC50 [10] was 5.38 µM and the IC50 [5] was 13 µM. For the same molecule, the IC50 [6] was 18.1 µM and the IC50 [7] was 6560 nM.
